Laboratory results from patent publication US8143393B2, “Substituted 4-amino-pyrrolotriazine derivatives useful for treating hyper-proliferative disorders and diseases associated with angiogenesis” (Bayer HealthCare LLC, priority 2005, dated 2012).

How the values were obtained:
[1] = test system: histone 3 phosphorylation in colon carcinoma (HCT116); test: p-Histone3 assay; assay type: cell-based; settings: Homo sapiens, HCT-116, 24 h, HCT116, 24 h treatment
Protocol: Compounds were assayed for the inhibition of histone 3 phosphorylation in colon carcinoma (HCT116). Briefly, 20,000 cells/well were seeded in a 96-well black-walled, poly-d-lysine plates in RPMI+10% FBS and incubated at 37° C. in 5% CO2 overnight. The following day, the cells were treated with compounds for 24 hours at 37° C. Following compound treatment; plates were centrifuged at 1000 rpm for 2 minutes and washed twice with 100 μl of cold sterile TBS. Cells were then fixed with cold 3.7% formaldehyde in TBS (4° C. for 1 hour) and then permeabolized with 0.1% Triton-X-100 in TBS (room temperature for 30 minutes). Plates were then washed with of 0.25% BSA-TBS and blocked with BSA solution for 1 hour at room temperature while shaking. The supernatant was removed and replaced with diluted primary antibody (anti-phospho-histone 3, serine 10, Cell Signaling) at 1:250 in 0.25% BSA-TBS and incubated overnight at 4° C. The plates were washed and treated with diluted secondary antibody (anti-rabbit Eu-labeled) at 1:10000 in 0.25% BSA-TBS (room temperature for 1 hour). The antibody solution was removed from each well and washed eight times. The wash buffer was replaced with 50 μl pre-warmed enhancement solution and mixed on the orbital shaker for 10 minutes. Fluorescence was detected with a Victor V Fluorescence Detector. The data are expressed as percent inhibition: % inhibition=100−((Signal with inhibitor−background)/(Signal without inhibitor−background))−100.

FGFR-1 = biological target: T1, FGFR-1 (Homo sapiens, UniProt P11362); test: FGFR-1 TR-FRET biochemical assay
T1 construct: GST; made in house
Summary of the method: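 In this LANCE time-resolved FRET format, compounds at final 10 μM–0.128 nM (1% DMSO, 1:5 series) were preincubated before enzyme start. Reactions ran for one hour at room temperature with 0.6 uM ATP, 25 nM biotinylated poly GT and 5 nM GST-tagged FGFR1. Inhibition was calculated from the 665/615 nm ratio minus the ATP-free background.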

[2] = lower bound of the bin 'greater than 500 nM but less than 5 μM'
[3] = 0.6 uM ATP, 5 nM FGFR1-GST, bounds given in nM
[4] = upper bound of the bin 'greater than 100 nM but less than 1 μM' (lower bound in E1)

T1 sequence (P11362 22-822): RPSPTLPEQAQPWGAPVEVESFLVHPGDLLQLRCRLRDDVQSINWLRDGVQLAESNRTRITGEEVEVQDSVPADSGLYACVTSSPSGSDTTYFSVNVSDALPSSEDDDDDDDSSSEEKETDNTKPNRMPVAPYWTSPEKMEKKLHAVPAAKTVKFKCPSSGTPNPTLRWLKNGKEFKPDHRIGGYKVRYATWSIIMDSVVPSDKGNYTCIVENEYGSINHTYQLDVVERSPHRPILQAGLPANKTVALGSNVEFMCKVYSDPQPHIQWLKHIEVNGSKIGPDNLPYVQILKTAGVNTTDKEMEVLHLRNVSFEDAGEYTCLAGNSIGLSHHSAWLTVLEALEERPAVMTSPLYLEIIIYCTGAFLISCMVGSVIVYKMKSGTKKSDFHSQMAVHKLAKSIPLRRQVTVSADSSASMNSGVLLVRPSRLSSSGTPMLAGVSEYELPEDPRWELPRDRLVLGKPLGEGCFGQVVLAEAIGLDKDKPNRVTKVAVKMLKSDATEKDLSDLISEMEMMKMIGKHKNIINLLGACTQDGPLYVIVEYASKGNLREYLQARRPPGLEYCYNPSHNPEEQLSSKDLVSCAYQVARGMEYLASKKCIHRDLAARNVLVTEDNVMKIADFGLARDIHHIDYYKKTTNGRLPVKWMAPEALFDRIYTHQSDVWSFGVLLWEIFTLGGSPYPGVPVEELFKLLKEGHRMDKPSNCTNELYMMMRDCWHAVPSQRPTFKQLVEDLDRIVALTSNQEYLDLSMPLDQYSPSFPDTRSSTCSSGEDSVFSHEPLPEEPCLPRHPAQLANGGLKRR

Row | IC50 ([1]; bounds given in μM) [µM] | IC50 [1, 2] [µM] | IC50 (FGFR-1; [3]) [nM] | IC50 (FGFR-1; [4]) [nM] | SMILES
1 | < 5 | > 0.5 | 10 to 100 |  | CS(=O)(=O)N1CCN(Cc2cc(-c3ccc(NC(=O)Nc4cc(C(F)(F)F)ccc4F)cc3)c3c(N)ncnn23)CC1 [Example 83, N-[4-(4-amino-7{[4(methylsulfonyl)-piperazin-1-yl]methyl}pyrrolo[2,1-f][1,2,4]triazin-5-yl)phenyl]-N′-[2-fluoro-5-(trifluoromethyl)phenyl]urea]
2 | < 5 | > 0.5 |  |  | CC(=O)N1CCN(Cc2cc(-c3ccc(NC(=O)Nc4cc(C(F)(F)F)ccc4F)cc3)c3c(N)ncnn23)CC1 [Example 87, N-(4-{7-[(4-acetylpiperazin-1-yl)methyl]-4-aminopyrrolo[2,1-f][1,2,4]triazin-5-yl}phenyl)-N′-[2-fluoro-5-(trifluoromethyl)phenyl]urea]
3 | < 5 | > 0.5 |  |  | CS(=O)(=O)N1CCN(Cc2cc(-c3ccc(NC(=O)Nc4cccc(Br)n4)cc3)c3c(N)ncnn23)CC1 [Example 94, N-[4-(4-amino-7-[4-(methylsulfonyl)piperazin-1-yl]methylpyrrolo[2,1-f][1,2,4]triazin-5-yl)phenyl]-N′-(6-bromopyridin-2-yl)urea]
4 | < 5 | > 0.5 |  |  | Nc1ncnn2c(CN3CCNCC3)cc(-c3ccc(NC(=O)Nc4cccc(Br)n4)cc3)c12 [Example 91, N-4-[4-amino-7-(piperazin-1-ylmethyl)pyrrolo[2,1-f][1,2,4]-triazin-5-yl]phenyl-N′-(6-bromopyridin-2-yl)urea]
5 | < 5 | > 0.5 |  |  | Nc1ncnn2c(CO)cc(-c3ccc(NC(=O)Nc4cccc(C(F)(F)F)n4)cc3)c12 [Example 105, N-{4-[4-amino-7-(hydroxymethyl)pyrrolo[2,1-f][1,2,4]triazin-5-yl]phenyl}-N′-[6-(trifluoromethyl)pyridin-2-yl]urea]
6 | < 5 | > 0.5 |  |  | CC(=O)N1CCN(Cc2cc(-c3ccc(NC(=O)Nc4cccc(Br)n4)cc3)c3c(N)ncnn23)CC1 [Example 93, N-(4-7-[(4-acetylpiperazin-1-yl)methyl]-4-aminopyrrolo[2,1-f][1,2,4]triazin-5-ylphenyl)-N′-(6-bromopyridin-2-yl)urea]
7 |  |  | < 10 |  | Nc1ncnn2c(C3CCN(C(=O)CO)C3)cc(-c3ccc(NC(=O)Nc4cc(C(F)(F)F)ccc4F)c(F)c3)c12 (stereo not shown) [Example 204, N-{4-[4-amino-7-(1-glycoloylpyrrolidin-3-yl)pyrrolo[2,1-f][1,2,4]triazin-5-yl]-2-fluorophenyl}-N′-[2-fluoro-5-(trifluoromethyl)phenyl]urea]
8 |  |  | 10 to 100 |  | Nc1ncnn2c(C(=O)CN3CCOCC3)cc(-c3ccc(NC(=O)Nc4cc(C(F)(F)F)ccc4F)cc3)c12 [Example 103, N-{4-[4-amino-7-(morpholin-4-ylacetyl)pyrrolo[2,1-f][1,2,4]triazin-5-yl]phenyl}-N′-[2-fluoro-5-(trifluoromethyl)-phenyl]urea]
9 |  |  | < 10 |  | Nc1ncnn2c(C3CCNCC3)cc(-c3ccc(NC(=O)Nc4cc(C(F)(F)F)ccc4F)cc3)c12 [Example 242, N-[4-(4-amino-7-piperidin-4-ylpyrrolo[2,1-f][1,2,4]triazin-5-yl)phenyl]-N′-[2-fluoro-5-(trifluoromethyl)phenyl]urea]
10 |  |  | 10 to 100 |  | Nc1ncnn2c(C(=O)C3CNCCO3)cc(-c3ccc(NC(=O)Nc4cc(C(F)(F)F)ccc4F)c(F)c3)c12 (stereo not shown) [Example 289, N-{4-[4-amino-7-(morpholin-2-ylcarbonyl)pyrrolo[2,1-f][1,2,4]triazin-5-yl]-2-fluorophenyl}-N′-[2-fluoro-5-(trifluoromethyl)phenyl]urea]
11 |  |  | < 10 |  | CS(=O)(=O)N1CCC(c2cc(-c3ccc(NC(=O)Nc4cc(C(F)(F)F)ccc4F)c(F)c3)c3c(N)ncnn23)C1 (stereo not shown) [Example 201, N-(4-{4-amino-7-[1-(methylsulfonyl)pyrrolidin-3-yl]pyrrolo[2,1-f][1,2,4]triazin-5-yl}-2-fluorophenyl)-N′-[2-fluoro-5-(trifluoromethyl)phenyl]urea]

The remaining lines, values behind:

Row | SMILES | IC50 ([1]; bounds given in μM) [µM] | IC50 [1, 2] [µM] | IC50 (FGFR-1; [3]) [nM] | IC50 (FGFR-1; [4]) [nM]
12 | Nc1ncnn2c(CN3CCOCC3)cc(-c3ccc(NC(=O)Nc4cccc(Br)n4)c(F)c3)c12 [Example 73, N-4-[4-amino-7-(morpholin-4-ylmethyl)pyrrolo[2,1-f][1,2,4]-triazin-5-yl]-2-fluorophenyl-N′-(6-bromopyridin-2-yl)urea] | 5 to 10 |  |  | 
13 | Nc1ncnn2c(CN3CCOCC3)cc(-c3ccc(NC(=O)Nc4cc(C(F)(F)F)ccc4F)cc3F)c12 [Example 16, N-{4-[4-amino-7-(morpholin-4-ylmethyl)pyrrolo[2,1-f][1,2,4]triazin-5-yl]-3-fluorophenyl}-N′-[2-fluoro-5-(trifluoromethyl)phenyl]urea] | < 5 | > 0.5 | < 10 | 
14 | Nc1ncnn2c(CN3CCOCC3)cc(-c3ccc(NC(=O)Nc4cccc(C(F)(F)F)c4)c(F)c3)c12 [Example 10, N-{4-[4-amino-7-(morpholin-4-ylmethyl)pyrrolo[2,1-f][1,2,4]triazin-5-yl]-2-fluorophenyl}-N′-[3-(trifluoromethyl)phenyl]urea] | < 5 | > 0.5 | < 10 | 
15 | COc1cccc(NC(=O)Nc2ccc(-c3cc(CN4CCOCC4)n4ncnc(N)c34)cc2F)n1 [Example 72, N-4-[4-amino-7-(morpholin-4-ylmethyl)pyrrolo[2,1-f][1,2,4]triazin-5-yl]-2-fluorophenyl-N′-(6-methoxypyridin-2-yl)urea] | 5 to 10 |  |  | 
16 | Cc1ccc(F)c(NC(=O)Nc2ccc(-c3cc(CN4CCOCC4)n4ncnc(N)c34)cc2)c1 [Example 46, N-{4-[4-amino-7-(morpholin-4-ylmethyl)pyrrolo[2,1-f][1,2,4]triazin-5-yl]phenyl}-N′-(2-fluoro-5-methylphenyl)urea] | 5 to 10 |  |  | 
17 | Nc1ncnn2c(CN3CCOCC3)cc(-c3ccc(NC(=O)Nc4ccc(C(F)(F)F)cn4)cc3)c12 [Example 56, N-{4-[4-amino-7-(morpholin-4-ylmethyl)pyrrolo[2,1-f][1,2,4]-triazin-5-yl]phenyl}-N′-[5-(trifluoromethyl)pyridin-2-yl]urea] | 5 to 10 |  |  | 
18 | Nc1ncnn2c(CN3CCNC(=O)C3)cc(-c3ccc(NC(=O)Nc4cc(C(F)(F)F)ccc4F)cc3)c12 [Example 39, N-(4-{4-amino-7-[(3-oxopiperazin-1-yl)methyl]pyrrolo[2,1-f][1,2,4]triazin-5-yl}phenyl)-N′-[2-fluoro-5-(trifluoromethyl)phenyl]urea] |  |  | < 10 | 
19 | Nc1ncnn2c(CN3CCOCC3)cc(-c3ccc(NC(=O)Nc4ccc(Cl)cn4)cc3)c12 [Example 63, N-{4-[4-amino-7-(morpholin-4-ylmethyl)pyrrolo[2,1-f][1,2,4]triazin-5-yl]phenyl}-N′-(5-chloropyridin-2-yl)urea] |  |  | > 100 | < 1000
20 | Nc1ncnn2c(CN3CCOCC3)cc(-c3ccc(NC(=O)Nc4cccc(C(F)(F)F)c4F)cc3)c12 [Example 58, N-{4-[4-amino-7-(morpholin-4-ylmethyl)pyrrolo[2,1-f][1,2,4]-triazin-5-yl]phenyl}-N′-[2-fluoro-3-(trifluoromethyl)phenyl]urea] |  |  | 10 to 100 | 
21 | Nc1ncnn2c(CN3CCOCC3)cc(-c3cc(F)c(NC(=O)Nc4cc(C(F)(F)F)ccn4)c(F)c3)c12 [Example 14, N-{4-[4-amino-7-(morpholin-4-ylmethyl)pyrrolo[2,1-f][1,2,4]triazin-5-yl]-2,6-difluorophenyl}-N′-[4-(trifluoromethyl)pyridin-2-yl]urea] |  |  | > 100 | < 1000
